Laboratory results from patent US20040176349A1, “Antibacterial composition” (priority 2001, published 2004).
Like-named read-outs stand apart in the source and are kept apart here.

Key:
E. faecalis ATCC 10541 = experiment: Checkerboard microdilution MIC with PFOB, Table 2; assay type: cell-based; details: E. faecalis ATCC 10541; for Synergy FIC: FIC index of PFOB + labelled partner, <0.5 = synergy; for MIC of partner antibiotic in the presence of PFOB at 0.5 mg/L: PFOB 0.5 mg/L; for MIC of partner antibiotic in the presence of PFOB at 1 mg/L: PFOB 1 mg/L; for MIC of partner antibiotic in the presence of PFOB at 2 mg/L: PFOB 2 mg/L; for MIC of partner antibiotic in the presence of PFOB at 4 mg/L: PFOB 4 mg/L; for MIC of partner antibiotic in the presence of PFOB at 8 mg/L: PFOB 8 mg/L; for MIC of partner antibiotic in the presence of PFOB at 16 mg/L: PFOB 16 mg/L; for MIC of partner antibiotic in the presence of PFOB at 32 mg/L: PFOB 32 mg/L; for MIC: Enterococcus faecalis, ATCC10541
Excerpt: The aim of the study was to detect any synergy between PFOB and the other antibiotics. For the purposes of the study, synergy was defined in accordance with the FIC (fractional inhibitory concentration) index, as disclosed by Lorian (1991, In “Antibiotics in Laboratory Medicine” 3rd edition, Eds. Williams & Wilkins; esp. p 434-443).

E. faecalis 5659 (vanA) = experiment: Checkerboard microdilution MIC with PFOB, Table 2; assay type: cell-based; details: E. faecalis 5659 (vanA); for MIC of partner antibiotic in the presence of PFOB at 0.5 mg/L: PFOB 0.5 mg/L; for MIC of partner antibiotic in the presence of PFOB at 1 mg/L: PFOB 1 mg/L; for MIC of partner antibiotic in the presence of PFOB at 2 mg/L: PFOB 2 mg/L; for MIC of partner antibiotic in the presence of PFOB at 4 mg/L: PFOB 4 mg/L; for MIC of partner antibiotic in the presence of PFOB at 8 mg/L: PFOB 8 mg/L; for MIC of partner antibiotic in the presence of PFOB at 16 mg/L: PFOB 16 mg/L; for MIC of partner antibiotic in the presence of PFOB at 32 mg/L: PFOB 32 mg/L; for MIC: Enterococcus faecalis, partner antibiotic alone, read-out: MIC (alone) of Partner
Excerpt: (§1) The aim of the study was to detect any synergy between PFOB and the other antibiotics. For the purposes of the study, synergy was defined in accordance with the FIC (fractional inhibitory concentration) index, as disclosed by Lorian (1991, In “Antibiotics in Laboratory Medicine” 3rd edition, Eds. Williams & Wilkins; esp. p 434-443). In essence, if the combination of test compounds gives at least a 4-fold reduction in the FIC value for each compound, then a synergy may be considered to exist (i.e. FIC of the combination <0.5=synergy; FIC 0.5-2.0=“indifference”; and FIC >2=antagonism).
(§2) In Table 2, results in the checkerboard indicating synergy are hatched, and specific optimum synergistic combinations are boxed.

E.faecalis 78097 (van B) = experiment: Checkerboard microdilution MIC with PFOB, Table 2; assay type: cell-based; details: E.faecalis 78097 (van B); for MIC of partner antibiotic in the presence of PFOB at 0.5 mg/L: PFOB 0.5 mg/L; for MIC of partner antibiotic in the presence of PFOB at 1 mg/L: PFOB 1 mg/L; for MIC of partner antibiotic in the presence of PFOB at 2 mg/L: PFOB 2 mg/L; for MIC of partner antibiotic in the presence of PFOB at 4 mg/L: PFOB 4 mg/L; for MIC of partner antibiotic in the presence of PFOB at 8 mg/L: PFOB 8 mg/L; for MIC of partner antibiotic in the presence of PFOB at 16 mg/L: PFOB 16 mg/L; for MIC of partner antibiotic in the presence of PFOB at 32 mg/L: PFOB 32 mg/L; for MIC: Enterococcus faecalis, partner antibiotic alone, read-out: MIC (alone) of Partner
Excerpt: as §1, §2

E. faecalis ATCC 29212 = experiment: Checkerboard microdilution MIC with PFOB, Table 2; assay type: cell-based; details: E. faecalis ATCC 29212; for Synergy FIC: FIC index of PFOB + labelled partner, <0.5 = synergy; for MIC of partner antibiotic in the presence of PFOB at 0.5 mg/L: PFOB 0.5 mg/L; for MIC of partner antibiotic in the presence of PFOB at 1 mg/L: PFOB 1 mg/L; for MIC of partner antibiotic in the presence of PFOB at 2 mg/L: PFOB 2 mg/L; for MIC of partner antibiotic in the presence of PFOB at 4 mg/L: PFOB 4 mg/L; for MIC of partner antibiotic in the presence of PFOB at 8 mg/L: PFOB 8 mg/L; for MIC of partner antibiotic in the presence of PFOB at 16 mg/L: PFOB 16 mg/L; for MIC of partner antibiotic in the presence of PFOB at 32 mg/L: PFOB 32 mg/L; for MIC of PFOB & Partner: Partner concentration: optimum synergistic combination with PFOB, second figure (partner); for MIC: Enterococcus faecalis, ATCC29212, partner antibiotic alone, read-out: MIC (alone) of Partner
Excerpt: as §1, §2

enterococci = experiment: Checkerboard study, synergy summary of Example 2; assay type: cell-based, Enterococcus; details: in words
Excerpt: as §1

[1] = partner antibiotic alone, read-out: MIC (alone) of Partner

MIC of partner antibiotic in the presence of PFOB at 0.5 mg/L (E. faecalis ATCC 10541) [µg/mL]	MIC of partner antibiotic in the presence of PFOB at 1 mg/L (E. faecalis ATCC 10541) [µg/mL]	MIC of partner antibiotic in the presence of PFOB at 2 mg/L (E. faecalis ATCC 10541) [µg/mL]	MIC of partner antibiotic in the presence of PFOB at 16 mg/L (E. faecalis ATCC 10541) [µg/mL]	MIC of partner antibiotic in the presence of PFOB at 32 mg/L (E. faecalis ATCC 10541) [µg/mL]	MIC (E. faecalis ATCC 10541; [1]) [µg/mL]	MIC of partner antibiotic in the presence of PFOB at 0.5 mg/L (E. faecalis 5659 (vanA)) [µg/mL]	MIC of partner antibiotic in the presence of PFOB at 1 mg/L (E. faecalis 5659 (vanA)) [µg/mL]	MIC of partner antibiotic in the presence of PFOB at 2 mg/L (E. faecalis 5659 (vanA)) [µg/mL]	MIC of partner antibiotic in the presence of PFOB at 4 mg/L (E. faecalis 5659 (vanA)) [µg/mL]	MIC of partner antibiotic in the presence of PFOB at 8 mg/L (E. faecalis 5659 (vanA)) [µg/mL]	MIC of partner antibiotic in the presence of PFOB at 32 mg/L (E. faecalis 5659 (vanA)) [µg/mL]	MIC (E. faecalis 5659 (vanA)) [µg/mL]	MIC of partner antibiotic in the presence of PFOB at 0.5 mg/L (E.faecalis 78097 (van B)) [µg/mL]	MIC of partner antibiotic in the presence of PFOB at 1 mg/L (E.faecalis 78097 (van B)) [µg/mL]	MIC of partner antibiotic in the presence of PFOB at 2 mg/L (E.faecalis 78097 (van B)) [µg/mL]	MIC of partner antibiotic in the presence of PFOB at 4 mg/L (E.faecalis 78097 (van B)) [µg/mL]	MIC of partner antibiotic in the presence of PFOB at 8 mg/L (E.faecalis 78097 (van B)) [µg/mL]	MIC of partner antibiotic in the presence of PFOB at 16 mg/L (E.faecalis 78097 (van B)) [µg/mL]	MIC of partner antibiotic in the presence of PFOB at 32 mg/L (E.faecalis 78097 (van B)) [µg/mL]	Compound	other results
>64	>64	>64	<0.06	<0.06	> 64	>64	>64	>64	>64	>64	0.5	> 64	64	8	8	8	4	1	0.5	CO/N=C(\C(=O)N[C@@H]1C(=O)N2C(C(=O)O)=C(COC(N)=O)CS[C@H]12)c1ccco1 [Cefuroxime, cefuroxime]	Synergy FIC (E. faecalis ATCC 10541): 0.067; MIC of partner antibiotic in the presence of PFOB at 4 mg/L (E. faecalis ATCC 10541): 8 µg/mL; MIC of partner antibiotic in the presence of PFOB at 8 mg/L (E. faecalis ATCC 10541): 0.5 µg/mL; MIC (E. faecalis ATCC 10541; optimum synergistic combination of PFOB with the labelled partner, first figure (PFOB), read-out: MIC of PFOB & Partner: PFOB concentration): 8 µg/mL; MIC (E. faecalis ATCC 10541; optimum synergistic combination with PFOB, second figure (partner), read-out: MIC of PFOB & Partner: Partner concentration): 0.5 µg/mL; MIC of partner antibiotic in the presence of PFOB at 16 mg/L (E. faecalis 5659 (vanA)): >64 µg/mL; Synergy FIC (E.faecalis 78097 (van B); FIC index of PFOB + labelled partner, <0.5 = synergy): 0.07; MIC of PFOB & Partner: Partner concentration (E.faecalis 78097 (van B); optimum synergistic combination with PFOB, second figure (partner)): 8 µg/mL; MIC (E.faecalis 78097 (van B)): > 64 µg/mL; Synergy FIC (E. faecalis ATCC 29212): 0.156; MIC of partner antibiotic in the presence of PFOB at 0.5 mg/L (E. faecalis ATCC 29212): >64 µg/mL; MIC of partner antibiotic in the presence of PFOB at 1 mg/L (E. faecalis ATCC 29212): >64 µg/mL; MIC of partner antibiotic in the presence of PFOB at 2 mg/L (E. faecalis ATCC 29212): 32 µg/mL; MIC of partner antibiotic in the presence of PFOB at 4 mg/L (E. faecalis ATCC 29212): 8 µg/mL; MIC of partner antibiotic in the presence of PFOB at 8 mg/L (E. faecalis ATCC 29212): 4 µg/mL; MIC of partner antibiotic in the presence of PFOB at 16 mg/L (E. faecalis ATCC 29212): 1 µg/mL; MIC of partner antibiotic in the presence of PFOB at 32 mg/L (E. faecalis ATCC 29212): <0.06 µg/mL; MIC of PFOB & Partner: Partner concentration (E. faecalis ATCC 29212): 1 µg/mL; MIC (E. faecalis ATCC 29212): 32 µg/mL
0.25	0.25	0.25	0.06	<0.03	1	2	2	2	2	1	0.25	1	0.5	0.5	0.5	0.5	0.5	0.5	0.5	CC1(C)S[C@@H]2[C@H](NC(=O)[C@H](N)c3ccccc3)C(=O)N2[C@H]1C(=O)O [Ampicillin, ampicillin]	Synergy FIC (E. faecalis ATCC 10541): 0.253; synergy with PFOB (enterococci): less marked, but still significant, synergy; MIC of partner antibiotic in the presence of PFOB at 16 mg/L (E. faecalis 5659 (vanA)): 1 µg/mL; MIC (E.faecalis 78097 (van B)): 1 µg/mL; MIC of partner antibiotic in the presence of PFOB at 0.5 mg/L (E. faecalis ATCC 29212): 1 µg/mL; MIC of partner antibiotic in the presence of PFOB at 1 mg/L (E. faecalis ATCC 29212): 1 µg/mL; MIC of partner antibiotic in the presence of PFOB at 2 mg/L (E. faecalis ATCC 29212): 1 µg/mL; MIC of partner antibiotic in the presence of PFOB at 4 mg/L (E. faecalis ATCC 29212): 1 µg/mL; MIC of partner antibiotic in the presence of PFOB at 8 mg/L (E. faecalis ATCC 29212): 1 µg/mL; MIC of partner antibiotic in the presence of PFOB at 16 mg/L (E. faecalis ATCC 29212): 1 µg/mL; MIC of partner antibiotic in the presence of PFOB at 32 mg/L (E. faecalis ATCC 29212): <0.03 µg/mL; MIC (E. faecalis ATCC 29212): 0.5 µg/mL
1	1	1	0.125	<0.03	1	1	1	1	1	1	0.25	0.25	1	1	1	1	1	1	1	C[C@@H](O)[C@H]1C(=O)N2C(C(=O)O)=C(SCCN=CN)C[C@H]12 [Imipenem, imipenem]	MIC of partner antibiotic in the presence of PFOB at 4 mg/L (E. faecalis ATCC 10541): 1 µg/mL; MIC of partner antibiotic in the presence of PFOB at 8 mg/L (E. faecalis ATCC 10541): 0.25 µg/mL; MIC (E.faecalis 78097 (van B)): 0.5 µg/mL; Synergy FIC (E. faecalis ATCC 29212): 0.375; MIC of partner antibiotic in the presence of PFOB at 0.5 mg/L (E. faecalis ATCC 29212): 0.5 µg/mL; MIC of partner antibiotic in the presence of PFOB at 1 mg/L (E. faecalis ATCC 29212): 0.5 µg/mL; MIC of partner antibiotic in the presence of PFOB at 2 mg/L (E. faecalis ATCC 29212): 0.5 µg/mL; MIC of partner antibiotic in the presence of PFOB at 4 mg/L (E. faecalis ATCC 29212): 0.25 µg/mL; MIC of partner antibiotic in the presence of PFOB at 8 mg/L (E. faecalis ATCC 29212): 0.125 µg/mL; MIC of partner antibiotic in the presence of PFOB at 16 mg/L (E. faecalis ATCC 29212): 0.125 µg/mL; MIC of partner antibiotic in the presence of PFOB at 32 mg/L (E. faecalis ATCC 29212): <0.03 µg/mL; MIC of PFOB & Partner: Partner concentration (E. faecalis ATCC 29212): 0.12 µg/mL; MIC (E. faecalis ATCC 29212): 0.5 µg/mL
